Counter-ions that a name gives are not always drawn.
| melting point | Structure (SMILES) |
| --- | --- |
| 146 °C | O=C(NCCN1CCCCCC1)Nc1nc2ccc(OS(=O)(=O)c3c(Cl)cccc3Cl)cc2s1 (as salt: benzenesulfonate) [Example 76, 2-{[(2-azepan-1-ylethyl)carbamoyl]amino}-1,3-benzothiazol-6-yl 2,6-dichlorobenzenesulfonate] |
| 227 °C | O=C(NCc1cccnc1)Nc1nc2ccc(OS(=O)(=O)c3c(Cl)cccc3Cl)cc2s1 (as salt: benzenesulfonate) [Example 78, 2-{[(pyridin-3-ylmethyl)carbamoyl]amino}-1,3-benzothiazol-6-yl 2,6-dichlorobenzenesulfonate] |

Continued, molecule first:

| Structure (SMILES) | melting point |
| --- | --- |
| O=C(NCCC1CCNCC1)Nc1nc2ccc(OS(=O)(=O)c3c(Cl)cccc3Cl)cc2s1 (as salt: trifluoroacetic acid salt) [Example 35, 2-{[(2-Piperidin-4-ylethyl)carbamoyl]amino}-1,3-benzothiazol-6-yl 2,6-dichlorobenzenesulfonate] | 240 °C |
| Cc1cccc(Cl)c1S(=O)(=O)Oc1ccc2[nH]c(NC(=O)NCCN3CCOCC3)nc2c1 [Example 11, 2-{[(2-Morpholin-4-ylethyl)carbamoyl]amino}-1H-benzimidazol-5-yl 2-chloro-6-methylbenzenesulfonate] | 168 °C |
| Nc1cc(Cl)cc(Cl)c1S(=O)(=O)Oc1ccc2nc(NC(=O)NCCN3CCOCC3)sc2c1 [Example 39, 2-{[(2-Morpholin-4-ylethyl)carbamoyl]amino}-1,3-benzothiazol-6-yl 2-amino-4,6-dichlorobenzenesulfonate] | 128 °C |

— US8110571B2, “Benzimidazole and benzothiazole derivatives, method for preparing same, use thereof as drugs, pharmaceutical compositions and novel use especially as c-MET inhibitors” (Aventis Pharma S.A., priority 2005, dated 2012)
